Laboratory results taken from ChEMBL document CHEMBL1240395 (Antimicrob Agents Chemother, 2010).
In brackets after ≈: the same amount, converted by molar mass. Several values for one entry are separate records, joined by “and”; a condition that tells them apart may be missing. Equal values may be shown once.

What was measured:
[1] = system: HCT-8; assay: Cytotoxicity against human HCT8 cells at 1.96 to 22.7 uM; type: cell-based; conditions: hct-8, 22.7 µM
[2] = system: Cryptosporidium parvum; assay: Antiparasitic activity against Cryptosporidium parvum infected in human […] cells after 46 hrs by immunofluorescence method; type: functional, organism-based
[3] = system: HCT-8; assay: Cytotoxicity against human HCT8 cells assessed as effect on cell viability at 25.69 to 37.22 uM; type: cell-based; conditions: hct-8, 37.22 µM
[4] = Cryptosporidium parvum, HCT-8, 46 h, read-out: IC50

IC50 [2, 4] | IC50 ([2]; htc8) | Compound | Activity [1] | Activity [3]
5 µg/mL (≈ 14.7 µM) | Not Active | CC(=O)Oc1ccccc1C(=O)Nc1ncc(S(C)(=O)=O)s1 | Non-toxic | 
6.1 µg/mL (≈ 18.4 µM) | Not Active | O=C(Nc1ncc(-c2ccccc2Cl)s1)c1ccccc1O | Non-toxic | Toxic
4.6 µg/mL (≈ 12.4 µM) | Not Active | COc1cccc(C(=O)Nc2ncc(Br)s2)c1OC(C)=O | Non-toxic | 
6.4 µg/mL (≈ 20.7 µM) | 9.2 µg/mL (≈ 29.7 µM) | CSc1nnc(NC(=O)c2ccccc2OC(C)=O)s1 | Non-toxic | Toxic
> 10 µg/mL | Not Active | CCOC(=O)Cc1nnc(NC(=O)c2ccccc2OC(C)=O)s1 | Non-toxic | 
 |  | CC(=O)Oc1cc(C)ccc1C(=O)Nc1ncc(Br)s1 | Non-toxic | 
> 10 µg/mL | Not Active | Cc1cnc(NC(=O)c2ccccc2O)s1 | Non-toxic | 
 |  | Cc1nc(NC(=O)c2ccccc2O)sc1Br | Non-toxic | Toxic
 |  | CC(=O)Oc1ccc(C)cc1C(=O)Nc1ncc(Cl)s1 | Non-toxic | Toxic
0.6 µg/mL (≈ 2.15 µM) | 1 µg/mL (≈ 3.58 µM) | Cc1nc(NC(=O)c2ccccc2O)sc1[N+](=O)[O-] | Non-toxic | Toxic
> 10 µg/mL | Not Active | O=C(Nc1ncc(C2CCCCC2)s1)c1ccccc1O | Non-toxic | 
 | 2.1 µg/mL and 4.8 µg/mL | CC(=O)Oc1ccccc1C(=O)Nc1nc(C)c(Br)s1 | Non-toxic | 
 |  | CC(=O)Oc1c(C)cccc1C(=O)Nc1ncc(Br)s1 | Non-toxic | Toxic
 |  | Cc1ccc(C(=O)Nc2ncc(Cl)s2)c(O)c1 | Non-toxic | Toxic
 |  | CC(=O)Oc1ccccc1C(=O)Nc1ncc(Br)s1 | Non-toxic | 
5.2 µg/mL (≈ 16.6 µM) | 9.3 µg/mL (≈ 29.7 µM) | Cc1ccc(C(=O)Nc2ncc(Br)s2)c(O)c1 | Non-toxic | 
> 10 µg/mL | Not Active | O=C(Nc1nccs1)c1ccccc1O | Non-toxic | 
 |  | CC(=O)Oc1ccccc1C(=O)Nc1ncc([N+](=O)[O-])s1 [NITAZOXANIDE] | Non-toxic | 

IC50 [2, 4] | IC50 ([2]; htc8) | Compound | Activity [1] | Activity [3]
 |  | Cc1cccc(C(=O)Nc2ncc(Br)s2)c1O | Non-toxic | Toxic
2.3 µg/mL (≈ 8.56 µM) | 4.6 µg/mL (≈ 17.1 µM) | Cc1cccc(C(=O)Nc2ncc(Cl)s2)c1O | Non-toxic | Toxic
 |  | Cc1cccc(C(=O)Nc2nc(C)c(Br)s2)c1O | Non-toxic | Toxic
 |  | Cc1ccc(O)c(C(=O)Nc2ncc(Cl)s2)c1 | Non-toxic | 
0.5 µg/mL (≈ 1.56 µM) | 1 µg/mL (≈ 3.11 µM) | CC(=O)Oc1c(C)cccc1C(=O)Nc1ncc([N+](=O)[O-])s1 | Non-toxic | Toxic
8.4 µg/mL (≈ 24.1 µM) | Not Active | CCOC(=O)Cc1csc(NC(=O)c2ccccc2OC(C)=O)n1 | Non-toxic | 
 | 2.6 µg/mL and 6 µg/mL | O=C(Nc1ncc(Cl)s1)c1ccccc1O | Non-toxic | Toxic
 | 0.4 µg/mL and 1 µg/mL | COc1cccc(C(=O)Nc2ncc([N+](=O)[O-])s2)c1O | Non-toxic | Toxic
 |  | O=C(Nc1ncc(F)s1)c1ccccc1O | Non-toxic | Toxic
5.5 µg/mL (≈ 19.7 µM) | Not Active | COc1ccccc1C(=O)Nc1ncc([N+](=O)[O-])s1 | Non-toxic | 
 | 1.7 µg/mL and 4.4 µg/mL | CC(=O)Oc1ccc(C)cc1C(=O)Nc1ncc(Br)s1 | Non-toxic | Toxic
 |  | Cc1cccc(C(=O)Nc2nc(-c3ccccc3)c(Br)s2)c1O | Non-toxic | Toxic
6.7 µg/mL (≈ 25.5 µM) | Not Active | CCCc1cnc(NC(=O)c2ccccc2O)s1 | Non-toxic | 
5 µg/mL (≈ 19 µM) | Not Active | CC(=O)Oc1ccccc1C(=O)Nc1nncs1 | Non-toxic | 
 | 0.4 µg/mL and 1 µg/mL | O=C(Nc1nc(-c2ccccc2)c(Br)s1)c1ccccc1O | Non-toxic | Toxic
 |  | O=C(Nc1ncc(Br)s1)c1ccccc1O | Non-toxic | 
6.9 µg/mL (≈ 23.1 µM) | Not Active | CS(=O)(=O)c1cnc(NC(=O)c2ccccc2O)s1 | Non-toxic | 
 |  | CC(=O)Oc1ccccc1C(=O)Nc1nnc(C(F)(F)F)s1 | Non-toxic | 
